Measured values taken from patent US11135234B2, “Effective aminoglycoside antibiotic for multidrug-resistant bacteria” (MICROBIAL CHEMISTRY RESEARCH FOUNDATION, priority 2015, dated 2021).
Values after ≈ are worked out from the molar mass of the structure shown.

Key:
[1] = test system: K. pneumoniae ATCC BAA-1705; experiment: MIC, agar plate dilution method, K. pneumoniae ATCC BAA-1705; format: cell-based, Klebsiella pneumoniae; details: for MIC: Klebsiella pneumoniae, ATCCBAA1705, K. pneumoniae ATCC BAA-1705, KPC-producing strain, read-out: minimal inhibitory concentration (MIC)
Method in brief: (§1)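 Minimal inhibitory concentration (μg/mL) was determined by agar plate dilution following the Japan Society of Chemotherapy method.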

[2] = test system: A. baumannii ATCC BAA-1710; experiment: MIC, agar plate dilution method, A. baumannii ATCC BAA-1710; format: cell-based, Acinetobacter baumannii; details: for MIC: Acinetobacter baumannii, ATCCBAA1710, A. baumannii ATCC BAA-1710, MDRA, read-out: minimal inhibitory concentration (MIC)
Method in brief: as §1

P. aeruginosa PAO1 = experiment: MIC, agar plate dilution method, P. aeruginosa PAO1; format: cell-based, Pseudomonas aeruginosa; details: for MIC: Pseudomonas aeruginosa, PAO1, P. aeruginosa PAO1, Sensitive bacterium, read-out: minimal inhibitory concentration (MIC)
Method in brief: as §1

[3] = test system: K. pneumoniae ATCC BAA-2146; experiment: MIC, agar plate dilution method, K. pneumoniae ATCC BAA-2146; format: cell-based, Klebsiella pneumoniae; details: for MIC: Klebsiella pneumoniae, ATCCBAA2146, K. pneumoniae ATCC BAA-2146, NDM-producing strain, read-out: minimal inhibitory concentration (MIC)
Method in brief: as §1

S. marcescens TH-0447 = experiment: MIC, agar plate dilution method, S. marcescens TH-0447; format: cell-based, Serratia marcescens; details: for MIC: Serratia marcescens, TH0447, S. marcescens TH-0447, AMK-resistant, read-out: minimal inhibitory concentration (MIC)
Method in brief: as §1

E. coli JM109/pMW218 = experiment: MIC, agar plate dilution method, E. coli JM109/pMW218; format: cell-based, Escherichia coli; details: for MIC: Escherichia coli, JM109/PMW218, E. coli JM109/pMW218, Sensitive bacterium, read-out: minimal inhibitory concentration (MIC)
Method in brief: as §1

E. faecium ATCC19434 = experiment: MIC, agar plate dilution method, E. faecium ATCC19434; format: cell-based, Enterococcus faecium; details: for MIC: Enterococcus faecium, ATCC19434, E. faecium ATCC19434, read-out: minimal inhibitory concentration (MIC)
Method in brief: as §1

P. aeruginosa MSC01035 = experiment: MIC, agar plate dilution method, P. aeruginosa MSC01035; format: cell-based, Pseudomonas aeruginosa; details: P. aeruginosa MSC01035, ABK-resistant; for MIC: Pseudomonas aeruginosa, read-out: minimal inhibitory concentration (MIC)
Method in brief: as §1

S. aureus RN4220/pMS520 = experiment: MIC, agar plate dilution method, S. aureus RN4220/pMS520; format: cell-based, Staphylococcus aureus; details: for MIC: Staphylococcus aureus, MRSA, read-out: minimal inhibitory concentration (MIC), S. aureus RN4220/pMS520, MRSA
Method in brief: as §1

S. marcescens GN6944 = experiment: MIC, agar plate dilution method, S. marcescens GN6944; format: cell-based, Serratia marcescens; details: S. marcescens GN6944, GM-resistant; for MIC: Serratia marcescens, read-out: minimal inhibitory concentration (MIC)
Method in brief: as §1

P. aeruginosa PAO1/GN315 = experiment: MIC, agar plate dilution method, P. aeruginosa PAO1/GN315; format: cell-based, Pseudomonas aeruginosa; details: for MIC: Pseudomonas aeruginosa, read-out: minimal inhibitory concentration (MIC), P. aeruginosa PAO1/GN315, AMK-resistant
Method in brief: as §1

S. aureus RN4220 = experiment: MIC, agar plate dilution method, S. aureus RN4220; format: cell-based, Staphylococcus aureus; details: for MIC: Staphylococcus aureus, RN4220, S. aureus RN4220, Sensitive bacterium, read-out: minimal inhibitory concentration (MIC)
Method in brief: as §1

P. aeruginosa MSC17707 = experiment: MIC, agar plate dilution method, P. aeruginosa MSC17707; format: cell-based, Pseudomonas aeruginosa; details: for MIC: Pseudomonas aeruginosa, MSC17707, P. aeruginosa MSC17707, AMK-resistant, read-out: minimal inhibitory concentration (MIC)
Method in brief: as §1

S. aureus MF490 = experiment: MIC, agar plate dilution method, S. aureus MF490; format: cell-based, Staphylococcus aureus; details: for MIC: Staphylococcus aureus, MRSA, read-out: minimal inhibitory concentration (MIC)
Method in brief: as §1

SMILES	MIC [1] [µg/mL]	MIC [2] [µg/mL]	MIC (P. aeruginosa PAO1) [µg/mL]	MIC [3] [µg/mL]	MIC (S. marcescens TH-0447) [µg/mL]	MIC (E. coli JM109/pMW218) [µg/mL]	MIC (E. faecium ATCC19434) [µg/mL]	MIC (P. aeruginosa MSC01035) [µg/mL]	MIC (S. aureus RN4220/pMS520) [µg/mL]	MIC (S. marcescens GN6944) [µg/mL]	MIC (P. aeruginosa PAO1/GN315) [µg/mL]	MIC (S. aureus RN4220) [µg/mL]	MIC (P. aeruginosa MSC17707) [µg/mL]	MIC (S. aureus MF490) [µg/mL]	further results
CNC1C(OC2OC(CO)C(NC(=O)C(N)CO)C(O)C2O)OC2CC(N)C(OC3C(N)CC(N)C(O)C3O)OC2C1O [Compound V1-l, 5-epi-4″-N-(L-seryl)apramycin]	–	–	–	–	–	–	–	–	–	–	–	–	–	–	minimal inhibitory concentration (MIC) ([1]; K. pneumoniae ATCC BAA-1705, KPC-producing strain): 1 µg/mL (≈ 1.6 µM); minimal inhibitory concentration (MIC) ([2]; A. baumannii ATCC BAA-1710, MDRA): 8 µg/mL (≈ 12.8 µM); minimal inhibitory concentration (MIC) (P. aeruginosa PAO1; P. aeruginosa PAO1, Sensitive bacterium): 4 µg/mL (≈ 6.38 µM); minimal inhibitory concentration (MIC) ([3]; K. pneumoniae ATCC BAA-2146, NDM-producing strain): 1 µg/mL (≈ 1.6 µM); minimal inhibitory concentration (MIC) (S. marcescens TH-0447; S. marcescens TH-0447, AMK-resistant): 8 µg/mL (≈ 12.8 µM); minimal inhibitory concentration (MIC) (E. coli JM109/pMW218; E. coli JM109/pMW218, Sensitive bacterium): 1 µg/mL (≈ 1.6 µM); minimal inhibitory concentration (MIC) (E. faecium ATCC19434; E. faecium ATCC19434): 32 µg/mL (≈ 51.1 µM); minimal inhibitory concentration (MIC) (P. aeruginosa MSC01035): 8 µg/mL (≈ 12.8 µM); minimal inhibitory concentration (MIC) (S. aureus RN4220/pMS520; S. aureus RN4220/pMS520, MRSA): 4 µg/mL (≈ 6.38 µM); minimal inhibitory concentration (MIC) (S. marcescens GN6944): 8 µg/mL (≈ 12.8 µM); minimal inhibitory concentration (MIC) (P. aeruginosa PAO1/GN315; P. aeruginosa PAO1/GN315, AMK-resistant): 4 µg/mL (≈ 6.38 µM); minimal inhibitory concentration (MIC) (S. aureus RN4220; S. aureus RN4220, Sensitive bacterium): 4 µg/mL (≈ 6.38 µM); minimal inhibitory concentration (MIC) (P. aeruginosa MSC17707; P. aeruginosa MSC17707, AMK-resistant): 4 µg/mL (≈ 6.38 µM); minimal inhibitory concentration (MIC) (S. aureus MF490; S. aureus MF490, MRSA): 8 µg/mL (≈ 12.8 µM)
CNC1C(O[C@H]2OC(CO)[C@@H](NC(=O)CCN)[C@H](O)C2O)O[C@H]2C[C@H](N)[C@@H](O[C@@H]3C(N)C[C@@H](N)C(O)[C@H]3O)OC2C1O (stereo partly drawn) [Compound V1-m, 4″-N-(β-alanyl)-5-epiapramycin]	1 (≈ 1.64 µM)	8 (≈ 13.1 µM)	2 (≈ 3.28 µM)	1 (≈ 1.64 µM)	8 (≈ 13.1 µM)	1 (≈ 1.64 µM)	16 (≈ 26.2 µM)	4 (≈ 6.55 µM)	2 (≈ 3.28 µM)	8 (≈ 13.1 µM)	4 (≈ 6.55 µM)	2 (≈ 3.28 µM)	2 (≈ 3.28 µM)	8 (≈ 13.1 µM)	–
CNC1C(O[C@H]2OC(CO)[C@@H](NC(=O)[C@@H](O)CN)[C@H](O)C2O)O[C@H]2C[C@H](N)[C@@H](O[C@@H]3C(N)C[C@@H](N)C(O)[C@H]3O)OC2C1O (stereo partly drawn) [Compound V1-n, 5-epi-4″-N-(L-isoseryl)apramycin]	1 (≈ 1.6 µM)	8 (≈ 12.8 µM)	2 (≈ 3.19 µM)	1 (≈ 1.6 µM)	8 (≈ 12.8 µM)	0.5 (≈ 0.798 µM)	16 (≈ 25.5 µM)	4 (≈ 6.38 µM)	2 (≈ 3.19 µM)	8 (≈ 12.8 µM)	4 (≈ 6.38 µM)	2 (≈ 3.19 µM)	2 (≈ 3.19 µM)	8 (≈ 12.8 µM)	–
CNC1C(O[C@H]2OC(CO)[C@@H](NC(=O)CN)[C@H](O)C2O)O[C@H]2C[C@H](N)[C@@H](O[C@@H]3C(N)C[C@@H](N)C[C@H]3O)OC2C1O (stereo partly drawn) [Compound V1-o, 6-deoxy-5-epi-4″-N-glycylapramycin]	1 (≈ 1.72 µM)	4 (≈ 6.89 µM)	2 (≈ 3.44 µM)	1 (≈ 1.72 µM)	8 (≈ 13.8 µM)	0.5 (≈ 0.861 µM)	8 (≈ 13.8 µM)	4 (≈ 6.89 µM)	1 (≈ 1.72 µM)	4 (≈ 6.89 µM)	2 (≈ 3.44 µM)	1 (≈ 1.72 µM)	2 (≈ 3.44 µM)	4 (≈ 6.89 µM)	–
CNCC(=O)N[C@@H]1C(CO)O[C@H](OC2O[C@H]3C[C@H](N)[C@@H](O[C@@H]4C(N)C[C@@H](N)C[C@H]4O)OC3C(O)C2NC)C(O)[C@H]1O (stereo partly drawn) [Compound V1-p, 6-deoxy-5-epi-4″-N-sarcosylapramycin]	1 (≈ 1.68 µM)	4 (≈ 6.73 µM)	2 (≈ 3.36 µM)	1 (≈ 1.68 µM)	8 (≈ 13.5 µM)	1 (≈ 1.68 µM)	8 (≈ 13.5 µM)	4 (≈ 6.73 µM)	1 (≈ 1.68 µM)	4 (≈ 6.73 µM)	4 (≈ 6.73 µM)	1 (≈ 1.68 µM)	2 (≈ 3.36 µM)	4 (≈ 6.73 µM)	–
